Measurements taken from US20090281065A1, “Use of Lysophospholipids to Treat Inflammation” (priority 2008, published 2009).
Marks after values point to notes of the source that are not given here.

What was measured:
IL6 = experiment: Plasma cytokine ELISA in TNBS colitis rats: IL6; details: Example 3; oral day 4-10: PB6 1.5 108 CFU/Kg thrice daily; Lysophospholipid 10.3 mg/Kg 2 times daily; combination 25.75 mg/ml 2 times daily; Mesacol 250 mg/Kg once daily
TNF-α = experiment: Plasma cytokine ELISA in TNBS colitis rats: TNF-α
IFN-γ = experiment: Plasma cytokine ELISA in TNBS colitis rats: IFN-γ
IL1-β = experiment: Plasma cytokine ELISA in TNBS colitis rats: IL1-β
IL10 = experiment: Plasma cytokine ELISA in TNBS colitis rats: IL10
TGF-β = experiment: Plasma cytokine ELISA in TNBS colitis rats: TGF-β
TNBS induced colitis [1] = experiment: TNBS induced colitis in rats: colon wet weight and macroscopic colon score; details: for Colon Score / Colon wet weight (g): day 11
TNBS induced colitis [2] = tested on: TNBS induced colitis
[3] = design: species or system Cobb 400 broiler chickens; details: in vivo
[4] = design: species or system Cobb 400 broiler chickens; details: in vivo; remark: listed apart in the source
NFκB = experiment: Inflammation test without TNF-α (NFκB luciferase reporter); format: cell-based; details: FIG. 9
Method: An overnight culture of HepG2/NFκB-Luc cells were trypsinized and transferred to 96-well microtiter plate, with 1.5×10^4 cells/well. […] After incubation, the supernatant was removed, and 100 μl of luciferase substrate was added into each well and incubated for 5 minutes. Then 80 μl of the solution was transferred to a clean microtiter plate to determine the florescence unit by Steady-Glo® Luciferase Assay System. The LPC-treated cells without substrate added were used as control.

HepG2/NFκB-Luc cells = experiment: Cytotoxicity test (AlamarBlue reduction rate); format: cell-based; details: 2 mg/ml (~3636 μM) LPC content; 4 hours; FIG. 8
Method: An overnight culture of HepG2/NFκB-Luc cells were trypsinized and transferred to 96-well microtiter plate, with 1.5×10^4 cells/well. The 96-well microtiter plates were incubated for 24 hours at 37° C. with 5% CO2. Then different concentrations of LPC samples were added into plate wells together with AlamarBlue. The cells were incubated for 4 hours at 37° C. with 5% CO2 before the OD570 and OD600 readings were measured. Culture medium with no LPC added was used as a control. The cytotoxicity was reflected by the amount of AlamarBlue being reduced (reduction rate (RR)) as determined by the following formula:
RR %={[(εoxλ2)(Aλ1)−(εoxλ1)(Aλ2)]}/{[(εredλ1)(A′λ2)−(εredλ2)(A′λ1)]}×100%
where, εredλ1=155677 (absorption coefficient of reduced AlamarBlue at 570 nm) • Εredλ2=14652 (absorption coefficient of reduced AlamarBlue at 600 nm) • εoxλ1=80586 (absorption coefficient of oxidized AlamarBlue at 570 nm) • εoxλ2=117216 (absorption coefficient of oxidized AlamarBlue at 600 nm) • A′λ1=OD570 of the blank control (wells with AlamarBlue but no cells) • A′λ2=OD600 of the blank control (wells with AlamarBlue but no cells).

[5] = Example 3, oral day 4-10: PB6 1.5 108 CFU/Kg thrice daily, Lysophospholipid 10.3 mg/Kg 2 times daily, combination 25.75 mg/ml 2 times daily, Mesacol 250 mg/Kg once daily
[6] = Example 4, Lysoprin + Marinol + lutein at 21.5 mg/kg orally thrice daily day 4-10, Mesacol 250 mg/Kg orally once daily

Nc1ccc(O)c(C(=O)O)c1 [Mesacol, 5-aminosalicylic acid]
IL6 level in Plasma Day 11 (IL6): 127.4^a picogram/ml
TNF-α level in Plasma Day 7 (TNF-α; [5]): 22.77^a picogram/ml
TNF-α level in Plasma Day 11 (TNF-α; [5]): 30.27^b picogram/ml
TNF-α level in Plasma Day 7 (TNF-α; [6]): 29±^ab picogram/ml
TNF-α level in Plasma Day 11 (TNF-α; [6]): 28±^a picogram/ml
IFN-γ level in Plasma Day 7 (IFN-γ; [5]): 20.8^a picogram/ml
IFN-γ level in Plasma Day 11 (IFN-γ; [5]): 40.23^c picogram/ml
IFN-γ level in Plasma Day 7 (IFN-γ; [6]): 37^b picogram/ml
IFN-γ level in Plasma Day 11 (IFN-γ; [6]): 40^c picogram/ml
IL1-β level in Plasma Day 7 (IL1-β; [5]): 881.52^b picogram/ml
IL1-β level in Plasma Day 11 (IL1-β; [5]): 848.33^bc picogram/ml
IL1-β level in Plasma Day 7 (IL1-β; [6]): 567±^a picogram/ml
IL1-β level in Plasma Day 11 (IL1-β; [6]): 685±^bc picogram/ml
IL10 level in Plasma Day 7 (IL10; [5]): 217.9ab picogram/ml
IL10 level in Plasma Day 11 (IL10; [5]): 444c picogram/ml
IL10 level in Plasma Day 7 (IL10; [6]): 231^ab picogram/ml
IL10 level in Plasma Day 11 (IL10; [6]): 454^d picogram/ml
TGF-β level in Plasma Day 7 (TGF-β; [5]): 17535 ± 2261a picogram/ml
TGF-β level in Plasma Day 11 (TGF-β; [5]): 32542 ± 5294b picogram/ml
TGF level in Plasma Day 7 (TGF-β; [6]): 37^b picogram/ml
TGF level in Plasma Day 11 (TGF-β; [6]): 40^c picogram/ml
macroscopic examination of the colonic tissue (TNBS induced colitis [1]; Example 3, PB6 (Group 4), Lysophospholipid 10.3 mg/kg (Group 5), combination 21.63 mg/kg (Group 6), Mesacol (Group 7)): no lesions with any visible inflammation or injury in the colonic tissue
Colon Score (TNBS induced colitis [1]; Example 3, macroscopic grade 0-5, oral day 4-10: PB6 1.5 108 CFU/Kg thrice daily, Lysophospholipids 10.3 mg/Kg 2 times daily, combination 25.75 mg/ml 2 times daily, Mesacol 250 mg/Kg once daily): 0.833^a
Colon wet weight (g) (TNBS induced colitis [1]; Example 3, oral day 4-10: PB6 1.5 108 CFU/Kg thrice daily, Lysophospholipids 10.3 mg/Kg 2 times daily, combination 25.75 mg/ml 2 times daily, Mesacol 250 mg/Kg once daily): 0.669^a g
Colon wet weight (g) (TNBS induced colitis [1]; Example 4, Lysoprin + Marinol + lutein at 21.5 mg/kg orally thrice daily day 4-10, Mesacol 250 mg/Kg orally once daily day 4-10): 0.336^ab g
Colon Score (TNBS induced colitis [1]; Example 4, grade 0-5, Lysoprin + Marinol + lutein at 21.5 mg/kg orally thrice daily day 4-10, Mesacol 250 mg/Kg orally once daily day 4-10): 1.000^a
macroscopic examination of the colonic tissue (TNBS induced colitis [1]; Example 4, low dose combination at 21.63 mg/kg (Group 4), Mesacol (Group 6, n=4/6)): signs of amelioration with reduced localized ulceration
% Body weight gain/loss Day 1-4 (TNBS induced colitis [2]; Example 3, TNBS day 1, Day 1-4 is prior to treatment (treatment from day 4)): −6.6%
% Body weight gain/loss Day 4-10 (TNBS induced colitis [2]; Example 3, oral day 4-10: PB6 1.5 10^8 CFU/Kg thrice daily, Lysophospholipids 10.3 mg/Kg 2 times daily, combination 25.75 mg/ml 2 times daily, Mesacol 250 mg/Kg once daily): −1.87%
mortalities due to severe weight loss (TNBS induced colitis [2]; Example 4, Mesacol 250 mg/kg group, n=6): two

CC1=C[C@H](O)CC(C)(C)[C@H]1/C=C/C(C)=C/C=C/C(C)=C/C=C/C=C(C)/C=C/C=C(C)/C=C/C1=C(C)C[C@@H](O)CC1(C)C [Treatment 2, lutein]
performance (feed intake, weight gain, FCR) [3]: comparable to that of the control group

CCC(=O)[O-].CCC(=O)[O-].CCC(=O)[O-].[Cr+3] [Treatment 3, chromium propionate]
relative weight of the thymus [4]: higher
FCR [3]: A similar trend
weight gain [3]: A similar trend

lysophosphatidylcholine [pure LPC]
inflammation activity (luciferase activity), without TNF-α, highest concentration (NFκB; 50 μM of LPC, compared to the mock treatment): no statistical difference
inflammation activity (luciferase activity), without TNF-α (NFκB; 5, 15 and 50 μM LPC content, 6 hours): inflammatory effect at all the three concentrations tested
cytotoxicity (AlamarBlue reduction rate) (HepG2/NFκB-Luc cells): Certain inhibition
